Assay results taken from EP4748839A1 (CSPC Zhongqi Pharmaceutical Technology (Shijiazhuang) Co., …, priority 2023, dated 2025).

Columns and labels:
GLP-1R = biological target: T1, GLP-1R (Homo sapiens, UniProt P43220); assay: GLP-1R agonistic effect in GLP1R-cAmp-Luc cells (luciferase reporter; titled 'Enzymatic assay'); type: cell-based; conditions: for EC50: 4 hours incubation, firefly luciferin signal; for EC50 of Positive reference / EC50 of Compound of the Present Application: Positive reference is PF-06882961
T1 construct: expressed in transfected cells
T1 sequence (P43220 24-463, species assumed): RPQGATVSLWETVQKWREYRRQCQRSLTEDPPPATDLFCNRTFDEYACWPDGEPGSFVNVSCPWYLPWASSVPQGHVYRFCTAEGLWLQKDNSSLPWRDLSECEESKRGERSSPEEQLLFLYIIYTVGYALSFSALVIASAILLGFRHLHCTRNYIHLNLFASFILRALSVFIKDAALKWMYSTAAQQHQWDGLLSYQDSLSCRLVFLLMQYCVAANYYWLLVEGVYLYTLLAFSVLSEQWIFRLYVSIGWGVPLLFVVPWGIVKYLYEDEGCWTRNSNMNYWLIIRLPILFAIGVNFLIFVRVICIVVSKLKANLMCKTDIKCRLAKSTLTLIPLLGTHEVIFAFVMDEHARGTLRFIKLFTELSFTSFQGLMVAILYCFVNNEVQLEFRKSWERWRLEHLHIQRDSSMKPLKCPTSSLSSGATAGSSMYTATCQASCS
Description: The GLP-1R agonistic effects of the test compounds were determined using GLP1R-cAmp-Luc cells. 1) The test compound was dissolved in DMSO and mixed well until the test compound was completely dissolved. The test compounds were dissolved in DMSO to prepare 10 mM stock solutions. All compounds were diluted with DMEM medium (high sugar, Puromycin^+, Hygromycin B^+) to an initial concentration of 1250 nM, and then subjected to 5-fold serial dilution to a total of 7 concentration gradients. The GLP1R-cAmp-Luc cells were seeded in white-wall 96-well cell culture plates at a density of 1×10^5/mL, with 90 µL cell suspension per well; the test compound at each of the 7 concentration gradients was added at 10 µL per well, with the actual initial working concentration of 125 nM; and the cells were placed in a 37 °C, 5% CO2 cell incubator for 4 hours; 2) 100 µL of luciferin potassium salt solution diluted to 300 µg/mL in PBS was added to each well at a working concentration of 150 µg/mL and incubated at room temperature for 30 minutes; 3) fluorescence signals of firefly luciferin were measured with a multifunctional microplate reader (PerkinElmer, Nivo); and the fluorescence values were processed using GraphPad Prism software to calculate EC50 values.

[1] = In vivo pharmacokinetic assay in mice; conditions: mouse; ICR mice (female), oral gavage 10 mg/kg, plasma
Description: Experimental animals: ICR mice (female, 22-25 g), purchased from Beijing Vital River Laboratory Animal Technology Co., Ltd.
Experimental procedure: ICR mice were administered the test compounds by gavage. Whole blood samples of the mice were collected at 15 min, 0.5 h, 1 h, 2 h, 4 h, 8 h and 24 h after administration and centrifuged to isolate plasma. The compound concentration was measured by LC-MS/MS, and pharmacokinetic parameters such as Area Under the Concentration-Time Curve (AUC) were calculated using Winnolin software.
Oral gavage dose: 10 mg/kg.
Measurement method: Quantitative analysis was carried out in the LC/MS/MS system after pretreatment with a protein precipitation method.

[2] = tested on: C57BL/6 hGLP1R transgenic mice; assay: Determination of food intake inhibition rate; type: in vivo; conditions: C57BL/6 hGLP1R mice, gavage, 2mpk, administrated once
Description: The food intake of C57BL/6 hGLP1R transgenic mice in each cage was measured at 18:00 on the day before administration, and the remaining weight of food was measured at 8: 00 on the next day (day 0) The difference between the two measurements was recorded as the baseline food intake weight. The mice were randomly grouped (test compound group and vehicle group) according to the baseline food intake and body weight. The food intake and body weight of the mice at 0 h were measured before administration. The mice were administered by gavage at 20:00 on day 0, and then the food intake and body weight of the mice were measured at specific time points. The phase (within a defined period of time) food intake, phase food intake rate, cumulative (after administration to a specific time point) food intake, cumulative food intake rate and body weight were finally statistically analyzed to evaluate the food intake inhibitory effect of the compounds. Cumulative Food intake (g) = (mbefore)−(mafter). [formula]
"m before" is the weight of food before food intaking for the period of time, and "m after" is the weight of food after food intaking for the period of time. Food intake inhibition rate (%) = (1−(madministrationgroup)/(mvehiclegroup))*100. [formula]
"m administration group" is the cumulative food intake of the administration group during the period of time, and "m vehicle group" is the cumulative food intake of the vehicle group during the period of time.

Row | SMILES | EC50 (GLP-1R) [nM] | AUC(0-t) [1] [ng·h/mL] | EC50 of Positive reference / EC50 of Compound of the Present Application (GLP-1R) | cumulative food intake inhibition rate 0-2.5 hours ([2]; 0-2.5 hours) [%] | cumulative food intake inhibition rate 0-5 hours ([2]; 0-5 hours) [%] | cumulative food intake inhibition rate 0-12 hours ([2]; 0-12 hours) [%]
1 | O=C(O)c1ccc2nc(Cc3c(F)cc(-c4cccc(OCc5ccc(Cl)cc5F)n4)c4c3CCO4)n(CC3(CF)CC3)c2c1 [Compound 14, 2-((7-(6-((4-chloro-2-fluorobenzyl)oxy)pyridin-2-yl)-5-fluoro-2,3-dihydrobenzofuran-4-yl)methyl)-1-((1-(fluoromethyl)cyclopropyl)methyl)-1H-benzo[d]imidazole-6-carboxylic acid] | 1 to 5 | 12700 |  |  |  | 
2 | COc1cc(C(=O)O)cc2c1nc(Cc1c(F)cc(-c3cccc(OCc4ccc(C#N)cc4F)n3)c3c1CCO3)n2CC1(CF)CC1 [Compound 93, 2-((7-(6-((4-Cyano-2-fluorobenzyl)oxy)pyridin-2-yl)-5-fluoro-2,3-dihydrobenzofuran-4-yl)methyl)-1-((1-(fluoromethyl)cyclopropyl)methyl)-4-methoxy-1H-benzo[d]imidazole-6-carboxylic acid] | ≤ 1 | 8440 |  |  |  | 
3 | COc1cc(C(F)(F)F)ccc1COc1cccc(-c2cc(F)c(Cc3nc4ccc(C(=O)O)cc4n3CC3(CF)CC3)c3c2OCC3)n1 [Compound 83, 2-((5-Fluoro-7-(6-((2-methoxy-4-(trifluoromethyl)benzyl)oxy)pyridin-2-yl)-2,3-dihydrobenzofuran-4-yl)methyl)-1-((1-(fluoromethyl)cyclopropyl)methyl)-1H-benzo[d]imidazole-6-carboxylic acid] |  | 14000 |  |  |  | 
4 | COc1cc(C(F)(F)F)ccc1COc1cccc(-c2cc(F)c(Cc3nc4c(OC)cc(C(=O)O)cc4n3CC3(CF)CC3)c3c2OCC3)n1 [Compound 89, 2-((5-Fluoro-7-(6-((2-methoxy-4-(trifluoromethyl)benzyl)oxy)pyridin-2-yl)-2,3-dihydrobenzofuran-4-yl)methyl)-1-((1-(fluoromethyl)cyclopropyl)methyl)-4-methoxy-1H-benzo[d]imidazole-6-carboxylic acid] | ≤ 1 | 14100 |  |  |  | 
5 | COc1cc(C(=O)O)cc2c1nc(Cc1c(F)cc(-c3ccc(F)c(OCc4ccc(Cl)cc4F)n3)c3c1CCO3)n2C[C@@H]1CCO1 [Compound 101, (S)-2-((7-(6-((4-chloro-2-fluorobenzyl)oxy)-5-fluoropyridin-2-yl)-5-fluoro-2,3-dihydrobenzofuran-4-yl)methyl)-4-methoxy-1-(oxetan-2-ylmethyl)-1H-benzo[d]imidazole-6-carboxylic acid] | ≤ 1 | 22500 | Ratio ≥10 | 97 | 89 | 75
6 | COc1cc(C(=O)O)cc2c1nc(Cc1c(F)cc(-c3nc(OCc4ccc(Cl)cc4F)ncc3F)c3c1CCO3)n2C[C@@H]1CCO1 [Compound 118, (S)-2-((7-(2-((4-chloro-2-fluorobenzyl)oxy)-5-fluoropyrimidin-4-yl)-5-fluoro-2,3-dihydrobenzofuran-4-yl)methyl)-4-methoxy-1-(oxetan-2-ylmethyl)-1H-benzo[d]imidazole-6-carboxylic acid] | ≤ 1 | 8300 | Ratio ≥10 |  |  | 
7 | COc1cc(C(=O)O)cc2c1nc(Cc1c(F)cc(-c3ccc(F)c(OCc4ccc(Cl)cc4F)c3)c3c1CCO3)n2C[C@@H]1CCO1 [Compound 105, (S)-2-((7-(3-((4-chloro-2-fluorobenzyl)oxy)-4-fluorophenyl)-5-fluoro-2,3-dihydrobenzofuran-4-yl)methyl)-4-methoxy-1-(oxetan-2-ylmethyl)-1H-benzo[d]imidazole-6-carboxylic acid] | 1 to 5 | 6900 |  |  |  | 
8 | COc1cc(C(=O)O)cc2c1nc(Cc1c(F)cc(-c3nc(OCc4ccc(C)cc4F)ncc3F)c3c1CCO3)n2C[C@@H]1CCO1 [Compound 134] | ≤ 1 | 15700 | Ratio ≥10 |  |  | 
9 | COc1cc(C(=O)O)cc2c1nc(Cc1c(F)cc(-c3ccc(F)c(OCc4ccc(C)cc4F)n3)c3c1CCO3)n2C[C@@H]1CCO1 [Compound 132, (S)-2-((7-(5-fluoro-6-((2-fluoro-4-methylbenzyl)oxy)pyridin-2-yl)-5-fluoro-2,3-dihydrobenzofuran-4-yl)methyl)-4-methoxy-1-(oxetan-2-ylmethyl)-1H-benzo[d]imidazole-6-carboxylic acid] | ≤ 1 | 19500 | Ratio ≥10 |  |  | 
10 | COc1cc(C(=O)O)cc2c1nc(Cc1c(F)cc(-c3cccc(OCc4ccc(Cl)cc4F)n3)c3c1CCO3)n2CC1(CF)CC1 [Compound 92, 2-((7-(6-((4-Chloro-2-fluorobenzyl)oxy)pyridin-2-yl)-5-fluoro-2,3-dihydrobenzofuran-4-yl)methyl)-1-((1-(fluoromethyl)cyclopropyl)methyl)-4-methoxy-1H-benzo[d]imidazole-6-carboxylic acid] |  | 23700 |  |  |  | 
11 | COc1cc(C(=O)O)cc2c1nc(Cc1c(F)cc(-c3ccc(F)c(OCc4ccc(C5COC5)cc4F)n3)c3c1CCO3)n2C[C@@H]1CCO1 [Compound 126, (S)-2-((7-(5-fluoro-6-((2-fluoro-4-(oxetan-3-yl)benzyl)oxy)pyridin-2-yl)-5-fluoro-2,3-dihydrobenzofuran-4-yl)methyl)-4-methoxy-1-(oxetan-2-ylmethyl)-1H-benzo[d]imidazole-6-carboxylic acid] | ≤ 1 |  | Ratio ≥10 |  |  | 
12 | COc1cc(C(F)(F)F)ccc1COc1cccc(-c2ccc(Cc3nc4c(OC)cc(C(=O)O)cc4n3C[C@@H]3CCO3)c3c2OCCO3)n1 [Compound 62, (S)-4-methoxy-2-((8-(6-((2-methoxy-4-(trifluoromethyl)benzyl)oxy)pyridin-2-yl)-2,3-dihydrobenzo[b][1,4]dioxan-5-yl)methyl)-1-(oxetan-2-ylmethyl)-1H-benzo[d]imidazole-6-carboxylic acid] | 1 to 5 |  |  |  |  | 
13 | O=C(O)c1cc(OCC(F)F)c2nc(Cc3c(F)cc(-c4cccc(OCc5ccc(Cl)cc5OC(F)F)n4)c4c3OCO4)n(CC3(CF)CC3)c2c1 [Compound 86, 2-((7-(6-((4-Chloro-2-(difluoromethoxy)benzyl)oxy)pyridin-2-yl)-5-fluoro-benzo[d][1,3]dioxolan-4-yl)methyl)-4-(2,2-difluoroethoxy)-1-((1-(fluoromethyl)cyclopropyl)methyl)-1H-benzo[d]imidazole-6-carboxylic acid] | 1 to 5 |  |  |  |  | 
14 | N#Cc1ccc(COc2cccc(-c3cc(Cl)c(Cc4nc5ccc(C(=O)O)cc5n4C[C@@H]4CCO4)c4c3OCC4)n2)c(F)c1 [Compound 7, (S)-2-((5-chloro-7-(6-((4-cyano-2-fluorobenzyl)oxy)pyridin-2-yl)-2,3-dihydrobenzofuran-4-yl)methyl)-1-(oxetan-2-ylmethyl)-1H-benzo[d]imidazole-6-carboxylic acid] | ≤ 1 |  | Ratio ≥10 |  |  | 
15 | COc1cc(C(=O)O)cc2c1nc(Cc1c(F)cc(-c3ccnc(OCc4ccc(Cl)cc4OC(F)F)n3)c3c1CCO3)n2C[C@@H]1CCO1 [Compound 113, (S)-2-((7-(2-((2-difluoromethoxy-4-chlorobenzyl)oxy)pyrimidin-4-yl)-5-fluoro-2,3-dihydrobenzofuran-4-yl)methyl)-4-methoxy-1-(oxetan-2-ylmethyl)-1H-benzo[d]imidazole-6-carboxylic acid] | ≤ 1 |  | Ratio ≥10 |  |  | 
